# Assay results published in patent publication US20150252329A1, “METHODS AND APPARATUS FOR CULTURING CILIATED CELLS” (THE UNIVERSITY OF NORTH CAROLINA AT CHAPEL HILL, priority 2012, published 2015).
# Test system: human airway epithelial cells
# Test: CBF and MCT speed of HAE cells cultured in the MCTD after stimulation by ATPγS
# Format: cell-based
# Details: HAE cell cultures with circular MCT in the MCTD; 1 mM ATPγS in buffer added to apical surface; average of four experiments/donors; p<0.05 vs carrier and baseline
# From the text: An MCT culturing device (MCTD) and the MCT system (MCTS) generally configured as shown for the MCTD 100 and MCTS 10 were constructed. The MCTD was constructed on a 30 mm Millicell™ cell culture insert (Millipore, Ireland). The base of an approximately 15 mm diameter central cylinder of cell culture compatible material (nylon, polystyrene) was attached to the center interior of the cell culture insert with an inert, silicone-based sealer. The approximately 4.0 mm outer ring or track defined in the bottom of the cell culture insert between the central cylinder and the cell culture insert was then coated with human Type IV collagen at ˜90 μg/cm^2, air-dried, and UV-irradiated. […] Cultures were examined at the time of media change and the extent of ciliation and the development of continuous, circular transport was recorded. […] High speed videos were recorded from four equally spaced positions around the MCTD. Ciliary beat frequency (CBF) was determined by whole field analysis using the SAVA™ software program (Sisson, Stoner et al. 2003), and the speed and direction of particle transport were determined by tracking particles of debris in the mucus. Alternatively, a small volume of fluid (0.5 μl) containing fluorescent beads was added to the mucus layer, and after equilibration (5-10 minutes), the motion of the fluorescent beads was recorded and analyzed using fluorescent microscopy. […]
smiles,measurement,value
Nc1ncnc2c1ncn2[C@@H]1O[C@H](COP(=O)(O)OP(=O)(O)OP(O)(O)=S)[C@@H](O)[C@H]1O [ATPγS],MCT speed (mucociliary transport),significantly increased
same,ciliary beat frequency (CBF),significantly increased
